The text below walks through data of patent publication US11052087B2, “Anti-HIV compounds” (priority 2018, dated 2021).

Series [1] can be described thus: Kinetic Solubility Analysis (CLND). It counts as physicochemical. The following applies: 26 °C, kinetic from dmso stock. As for the experimental part: Kinetic Solubility Analysis (CLND) Buffer Preparation:
0.1N HCl: Hydrochloric acid, 0.1N standardized solution.
1×PBS, 7.4: Phosphate Buffered Saline solution 10×, PBS 50 mL was added to approximately 450 mL HPLC grade H2O. The volume of the solution was then adjusted to 500 mL for a total dilution factor of 1:10 and a final PBS concentration of IX.
Kinetic Solubility from DMSO Stocks:
The final DMSO concentration is 1.0% and maximum theoretical compound concentration is 100 μM (assuming stock concentration of 10 mM). The filter plate was sealed. […] The collection plate was sealed for analysis. Filtrates were injected into the nitrogen detector for quantification.
The equimolar nitrogen response of the detector was calibrated using standards which spanned the dynamic range of the instrument from […] nitrogen. The filtrates were quantified with respect to this calibration curve. The calculated solubility values were corrected for background nitrogen present in the DMSO and the media used to prepare the samples.

In series [2] the test system is HIV-1 (IIIB) in MT-4 cells. Briefly: MT-4 HIV Assay. The series is classed as cell-based. Here is the method: Compounds were tested in a high-throughput 384-well assay format for their ability to inhibit the replication of HIV-1 (IIIB) in MT-4 cells. Compounds were serially diluted (1:3) in DMSO on 384-well polypropylene plates and further diluted 200-fold into complete RPMI media (10% FBS, 1% P/S) using the Biotek Micro Flow and Agilent ECHO acoustic dispenser. Each plate contained up to 8 test compounds, with negative (No Drug Control) and 5 μM AZT positive controls. MT-4 cells were pre-infected with 10 μL of either RPMI (mock-infected) or a fresh 1:250 dilution of an HIV-1 (IIIB) concentrated virus stock. Infected and uninfected MT-4 cells were further diluted in complete RPMI media and added to each plate using a Micro Flow dispenser. After 5 days incubation in a humidified and temperature controlled incubator (37° C.), Cell Titer Glo (Promega) was added to the assay plates to quantify the amount of luciferase. EC50 values were defined as the compound concentration that causes a 50% decrease in luminescence signal, and were calculated using a sigmoidal dose-response model to generate curve fits.

A short description of series [3]: Liver microsomal stability (human). It counts as in vitro ADME. The following applies: human liver microsomes 0.5 mg/mL, 1 μM compound, NADPH-regenerating system, 37° C. As for the experimental part:
(§1) Liver Microsomal Stability Protocol
(§2) Test compounds and one control compound (verapamil) were tested in 3 different species in duplicate sets.
(§3) Test compound concentration: 1 μM; Protein concentration: 0.5 mg/mL (for rat and human liver microsomes); Cofactor: NADPH-Regenerating system (NRS) solution. Time-points: 2, 12, 25, 45, and 65 minutes.
(§4) Reaction composition (in each incubation well) contains:
(§5) At an incubation temperature of 37° C., the reaction was started with addition of NADPH Regeneration System, at each time point, 25 μL of the reaction mixture was removed and added to a plate with 225 μL quenching solution (50% MeOH, 25% ACN, 25% H2O, and 200 nM labetalol as internal standard). After plates were vortexed, they were centrifuged for 30 minutes to remove proteins. About 100 μL supernatant was removed to a new plate and diluted with 150 μL water. About 20 μL of the mixture was injected into an LC/MS/MS system to monitor the compound's response. In vitro measured t1/2 was used to calculate Clint values.
(Microsomes from liver hold many membrane-bound enzymes, among them those of drug oxidation.)

Series [4] can be described thus: Liver microsomal stability (rat). The series is classed as in vitro ADME. The following applies: rat liver microsomes 0.5 mg/mL, 1 μM compound, NADPH-regenerating system, 37° C. As for the experimental part: as §1, §2, §3, §4, §5
Setting [5] is: 0.1N HCl, pH 1, simulated gastric fluid, read-out: Solubility, HCl, pH 1.0, RT.
[6] abbreviates: PBS, pH 7.4, aqueous buffer, read-out: Solubility, PBS, pH 7.4, RT.
Where [7] appears, read: Human immunodeficiency virus 1, MT4, 120 h, HIV-1 (IIIB) replication in MT-4 cells, 5 days incubation, Cell Titer Glo, read-out: EC50.

Values after ≈ are worked out from the molar mass of the structure shown. Where two headings read alike, the source gives them in different places.

`COC(=O)N[C@H](C(=O)N[C@@H](Cc1ccc(C#Cc2cnc(N3CC4CCC(C3)N4C3COC3)nc2)cc1)[C@H](CN(Cc1c(F)cc(-c2ccn(C(F)F)n2)cc1F)NC(=O)[C@@H](NC(=O)OC)C(C)(C)C(F)(F)F)OC(C)=O)C(C)(C)C(F)(F)F` [Example 3, (5S,10S,11S,14S)-8-(4-(1-(difluoromethyl)-1H-pyrazol-3-yl)-2,6-difluorobenzyl)-11-(4-((2-(8-(oxetan-3-yl)-3,8-diazabicyclo[3.2.1]octan-3-yl)pyrimidin-5-yl)ethynyl)benzyl)-3,6,13,16-tetraoxo-5,14-bis(1,1,1-trifluoro-2-methylpropan-2-yl)-2,17-dioxa-4,7,8,12,15-pentaazaoctadecan-10-yl acetate]: the solubility at 24 h was 25.2 µM in series [1] (setting [5]) and < 1 µM in series [1] (setting [6]). Moreover, the EC50 in series [2] (setting [7]) is 603 nM.
`COC(=O)N[C@H](C(=O)N[C@@H](Cc1ccc(C#Cc2cnc(N3CC4CCC(C3)N4C3COC3)nc2)cc1)[C@H](CN(Cc1c(F)cc(-c2ccn(C(F)F)n2)cc1F)NC(=O)[C@@H](NC(=O)OC)C(C)(C)C(F)(F)F)OC(=O)[C@H](C(C)C)N(C)C)C(C)(C)C(F)(F)F` [Example 4, (2S,3S)-1-(1-(4-(1-(difluoromethyl)-1H-pyrazol-3-yl)-2,6-difluorobenzyl)-2-((S)-4,4,4-trifluoro-2-((methoxycarbonyl)amino)-3,3-dimethylbutanoyl)hydrazinyl)-4-(4-((2-(8-(oxetan-3-yl)-3,8-diazabicyclo[3.2.1]octan-3-yl)pyrimidin-5-yl)ethynyl)phenyl)-3-((S)-4,4,4-trifluoro-2-((methoxycarbonyl)amino)-3,3-dimethylbutanamido)butan-2-yl dimethyl-L-valinate]: the solubility at 24 h is 99.2 µM (≈ 127 µg/mL) in series [1] (setting [5]) and < 1 µM in series [1] (setting [6]). Moreover, the concentration for a half-maximal effect (EC50) in series [2] (setting [7]) was 5710 nM.
As for `COC(=O)N[C@H](C(=O)N[C@@H](Cc1ccc(C#Cc2cnc(N3CC4CCC(C3)N4C3COC3)nc2)cc1)[C@H](CN(Cc1c(F)cc(-c2ccn(C(F)F)n2)cc1F)NC(=O)[C@@H](NC(=O)OC)C(C)(C)C(F)(F)F)OC(=O)CCC[N+](C)(C)C)C(C)(C)C(F)(F)F` [Example 7, (5S,10S)-8-(4-(1-(difluoromethyl)-1H-pyrazol-3-yl)-2,6-difluorobenzyl)-N,N,N-trimethyl-10-((1 S)-2-(4-((2-(8-(oxetan-3-yl)-3,8-diazabicyclo[3.2.1]octan-3-yl)pyrimidin-5-yl)ethynyl)phenyl)-1-((S)-4,4,4-trifluoro-2-((methoxycarbonyl)amino)-3,3-dimethylbutanamido)ethyl)-3,6,2-trioxo-5-(1,1,1-trifluoro-2-methylpropan-2-yl)-2,11-dioxa-4,7,8-triazapentadecan-15-aminium 2,2,2-trifluoroacetate], in series [2] (Human immunodeficiency virus 1, IIIB, MT4, 120 h), the EC50 was determined as 247 nM.
Turning to `COC(=O)N[C@H](C(=O)N[C@@H](Cc1ccc(C#Cc2cnc(N3CC4CCC(C3)N4C3COC3)nc2)cc1)[C@H](CN(Cc1c(F)cc(-c2ccn(C(F)F)n2)cc1F)NC(=O)[C@@H](NC(=O)OC)C(C)(C)C(F)(F)F)OC(=O)[C@@H](N)C(C)C)C(C)(C)C(F)(F)F` [Example 8, (2S,3S)-1-(1-(4-(1-(difluoromethyl)-1H-pyrazol-3-yl)-2,6-difluorobenzyl)-2-((S)-4,4,4-trifluoro-2-((methoxycarbonyl)amino)-3,3-dimethylbutanoyl)hydrazinyl)-4-(4-((2-(8-(oxetan-3-yl)-3,8-diazabicyclo[3.2.1]octan-3-yl)pyrimidin-5-yl)ethynyl)phenyl)-3-((S)-4,4,4-trifluoro-2-((methoxycarbonyl)amino)-3,3-dimethylbutanamido)butan-2-yl L-valinate], the solubility at 24 h in series [1] (setting [5]) is 90 µM (≈ 113 µg/mL); in series [1] (setting [6]) it was < 1 µM. In series [2] (setting [7]), the EC50 is 102 nM.
The matching figures for `COC(=O)N[C@H](C(=O)N[C@@H](Cc1ccc(C#Cc2cnc(N3CC4CCC(C3)N4C3COC3)nc2)cc1)[C@H](CN(Cc1c(F)cc(-c2ccn(C(F)F)n2)cc1F)NC(=O)[C@@H](NC(=O)OC)C(C)(C)C(F)(F)F)OC(=O)[C@@H](N)CCCCN)C(C)(C)C(F)(F)F` [Example 9, (2S,3S)-1-(1-(4-(1-(difluoromethyl)-1H-pyrazol-3-yl)-2,6-difluorobenzyl)-2-((S)-4,4,4-trifluoro-2-((methoxycarbonyl)amino)-3,3-dimethylbutanoyl)hydrazinyl)-4-(4-((2-(8-(oxetan-3-yl)-3,8-diazabicyclo[3.2.1]octan-3-yl)pyrimidin-5-yl)ethynyl)phenyl)-3-((S)-4,4,4-trifluoro-2-((methoxycarbonyl)amino)-3,3-dimethylbutanamido)butan-2-yl L-lysinate]: 86.8 µM (≈ 111 µg/mL), 6.8 µM (≈ 8.73 µg/mL) and 20.6 nM.
In the case of `COC(=O)N[C@H](C(=O)N[C@@H](Cc1ccc(C#Cc2cnc(N3CC4CCC(C3)N4C3COC3)nc2)cc1)[C@H](CN(Cc1c(F)cc(-c2ccn(C(F)F)n2)cc1F)NC(=O)[C@@H](NC(=O)OC)C(C)(C)C(F)(F)F)OC(=O)CN(C)C)C(C)(C)C(F)(F)F` [Example 10, (2S,3S)-1-(1-(4-(1-(difluoromethyl)-1H-pyrazol-3-yl)-2,6-difluorobenzyl)-2-((S)-4,4,4-trifluoro-2-((methoxycarbonyl)amino)-3,3-dimethylbutanoyl)hydrazinyl)-4-(4-((2-(8-(oxetan-3-yl)-3,8-diazabicyclo[3.2.1]octan-3-yl)pyrimidin-5-yl)ethynyl)phenyl)-3-((S)-4,4,4-trifluoro-2-((methoxycarbonyl)amino)-3,3-dimethylbutanamido)butan-2-yl dimethylglycinate], the values for the solubility at 24 h in series [1] (setting [5]) and in series [1] (setting [6]) were 79.3 µM (≈ 98.4 µg/mL) and < 1 µM, respectively.
With `COC(=O)N[C@H](C(=O)N[C@@H](Cc1ccc(C#Cc2cnc(N3CC4CCC(C3)N4C3COC3)nc2)cc1)[C@H](CN(Cc1c(F)cc(-c2ccn(C(F)F)n2)cc1F)NC(=O)[C@@H](NC(=O)OC)C(C)(C)C(F)(F)F)OP(=O)(O)O)C(C)(C)C(F)(F)F` [Example 12, methyl ((5S,10S,11S,14S)-8-(4-(1-(difluoromethyl)-1H-pyrazol-3-yl)-2,6-difluorobenzyl)-16,16,16-trifluoro-15,15-dimethyl-11-(4-((2-(8-(oxetan-3-yl)-3,8-diazabicyclo[3.2.1]octan-3-yl)pyrimidin-5-yl)ethynyl)benzyl)-3,6,13-trioxo-10-(phosphonooxy)-5-(1,1,1-trifluoro-2-methylpropan-2-yl)-2-oxa-4,7,8,12-tetraazahexadecan-14-yl)carbamate], the solubility at 24 h in series [1] (setting [5]) was 13.1 µM (≈ 16.2 µg/mL); in series [1] (setting [6]), 84.6 µM (≈ 105 µg/mL). The “Human Pred Cl. (L/H/kg)” value in series [3] was 0.47 L/H/kg. Further, the “Rat. Pred. Cl. (L/H/kg)” value in series [4] was 0.91 L/H/kg.
As to `COC(=O)N[C@H](C(=O)N[C@@H](Cc1ccc(C#Cc2ccc(N3CC4CCC(C3)N4C3COC3)nc2)cc1)[C@H](CN(Cc1c(F)cc(-c2ccn(C(F)F)n2)cc1F)NC(=O)[C@@H](NC(=O)OC)C(C)(C)C(F)(F)F)OC(=O)OCOP(=O)(O)O)C(C)(C)C(F)(F)F` [Example 13, methyl ((5S,10S,11S,14S)-8-(4-(1-(difluoromethyl)-1H-pyrazol-3-yl)-2,6-difluorobenzyl)-16,16,16-trifluoro-15,15-dimethyl-11-(4-((6-(8-(oxetan-3-yl)-3,8-diazabicyclo[3.2.1]octan-3-yl)pyridin-3-yl)ethynyl)benzyl)-3,6,13-trioxo-10-((((phosphonooxy)methoxy)carbonyl)oxy)-5-(1,1,1-trifluoro-2-methylpropan-2-yl)-2-oxa-4,7,8,12-tetraazahexadecan-14-yl)carbamate], the solubility at 24 h in series [1] (setting [5]) was 67.4 µM (≈ 88.2 µg/mL); in series [1] (setting [6]), < 1 µM.

What is called solubility is how much of the substance goes into solution per volume. What is called EC50 is the concentration needed to bring the measured effect to its halfway point.
